Where “and” joins values, the source holds several entries; their conditions need not be identical. Equal entries are not always repeated. Where two headings read alike, the source gives them in different places.
Tests used:
[1] = system: third instar larvae of Spodoptera litura; test: whole plant or invertebrate; format: in vivo; settings: for mortality at 50 ppm / mortality at 25 ppm: Spodoptera litura
Experimental: For the practical test, newly-prepared compounds 14–16 were evaluated for their insecticidal activities against the third instar larvae of Spodoptera litura according to the reported leaf-dip method.
[35] According to the literature 3a, 3b, and 3d methods, the insecticidal assays were performed by Kyung Nong Co. Ltd., Korea. In detail, please see the Supplementary materials.
Table S1 and S2: Larvicidal activity against Spodoptera (14 and 15a)
The lavicidal activities of synthesized compounds were evaluated by the leaf-dip procedure. 6 The aqueous solution of prepared compounds and chlorantraniliprole in acetone (H 2O : acetone = 95 : 5) were sprayed to a cabbage leave placed on moistened filter paper (disc, diameter 8.8 cm) in petri dishes. After allowing to dry, the dishes were infested with 10 Spodoptera litura (third-instar). After 1, 2, 3, and 4 days, percentage of mortalities was evaluated. The treatments were replicated three times. For negative control, larvicidal activities were 0 % at each time. Ref. is chlorantraniliprole as a positive control.
Table S1. Larvicidal activity depend on time against the 3 rd instar larvae of Spodoptera litura
Entry Compd Concentration Larvicidal activity (%) at 24 h
Entry Compd Concentration Larvicidal activity (%) at 48 h

[2] = pH-metric log P (ACD/Labs T3 method); format: physicochemical
Experimental: (§1) Because we believed that the physicochemical properties of newly-prepared diamides play important roles in their insecticidal activities, the studies were extended to investigate the bioavailability of organosulfur-based crop-protecting agents 14, 15a, 15b, 16a, and 16b in terms of plant systemic properties and membrane permeability. As references, their properties of chlorantraniliprole and cyantraniliprole were also measured.
[39] For LogP, Using ACD/Labs T3 method (pH—metric), for graphs; please see the Supplementary materials.
(§2) Table S3. Physical properties of organosulfur-substituted anthranilic […]
(§3) Entry X Y Log P c,d Permeability e […]
(§4) aMethod for determination of equilibrium solubility: μSOL 25; bat 25 ℃ and pH 7.4; cUsing ACD / Labs T3 method (pH – metric); dfor graphs, please see the supporting information, eMethod for determination of […]

[3] = format: in vitro ADME; settings: PAMPA
Experimental: as §1
(§5) [37] The physicochemical measurements for determinations of equilibrium solubility, log P, and PAMPA permeability were performed by Drug Discovery Platform Technology Team, KRICT, Korea.
as §2, §3, §4

[4] = Equilibrium solubility (μSOL); format: physicochemical; settings: 25 °C, thermodynamic from solid
Experimental: as §1, §5, §2, §3, §4

[5] = 24 h, read-out: Larvicidal activity (%) at 24 h, Average, 24 h, 50 ppm, average of three replicates
[6] = 24 h, read-out: Larvicidal activity (%) at 24 h, replicate 1, 24 h, 50 ppm
[7] = 24 h, read-out: Larvicidal activity (%) at 24 h, replicate 2, 24 h, 50 ppm
[8] = 24 h, read-out: Larvicidal activity (%) at 24 h, replicate 3, 24 h, 50 ppm
[9] = 48 h, read-out: Larvicidal activity (%) at 48 h, Average, 48 h, 50 ppm, average of three replicates
[10] = 48 h, read-out: Larvicidal activity (%) at 48 h, replicate 1, 48 h, 50 ppm
[11] = 48 h, read-out: Larvicidal activity (%) at 48 h, replicate 2, 48 h, 50 ppm
[12] = 48 h, read-out: Larvicidal activity (%) at 48 h, replicate 3, 48 h, 50 ppm
[13] = 72 h, read-out: Larvicidal activity (%) at 72 h, replicate 1, 72 h, 50 ppm
[14] = 72 h, read-out: Larvicidal activity (%) at 72 h, replicate 2, 72 h, 50 ppm
[15] = 72 h, read-out: Larvicidal activity (%) at 72 h, replicate 3, 72 h, 50 ppm
[16] = 96 h, read-out: Larvicidal activity (%) at 96 h, replicate 1, 96 h, 50 ppm
[17] = 96 h, read-out: Larvicidal activity (%) at 96 h, replicate 2, 96 h, 50 ppm
[18] = 96 h, read-out: Larvicidal activity (%) at 96 h, replicate 3, 96 h, 50 ppm
[19] = third instar larvae of S. litura, 96 h, concentration of 14 and 15a 50 ppm
[20] = read-out: Larvicidal Activity (%) at Time (h) 72 h, third instar larvae of S. litura, 72 h, concentration of 14 and 15a 50 ppm
[21] = read-out: Larvicidal Activity (%) at Time (h) 96 h, third instar larvae of S. litura, 96 h, concentration of 14 and 15a 50 ppm

With `CNC(=O)c1cc(S(C)=NC(=O)C(F)(F)F)cc(C)c1NC(=O)c1cc(Br)nn1-c1ncccc1Cl` (stereo not drawn) [Compound 15a, 3-Bromo-1-(3-chloropyridin-2-yl)-N-(2-methyl-4-(S-methyl-N-(2,2,2-trifluoroacetyl)sulfinimidoyl)-6-(methylcarbamoyl)phenyl)-1H-pyrazole-5-carboxamide] the mortality at 50 ppm [1, 5] was 0%, the mortality at 50 ppm [1, 6] was 0% and the mortality at 50 ppm [1, 7] was 0%. It also gave a mortality at 50 ppm [1, 8] of 0%, a mortality at 50 ppm [1, 9] of 0% and a mortality at 50 ppm [1, 10] of 0%. The mortality at 50 ppm [1, 11] was 0%, the mortality at 50 ppm [1, 12] was 0% and the mortality at 50 ppm ([1]; 72 h, read-out: Larvicidal Activity (%) at Time (h) 72 h, third instar larvae of S. litura, 72 h, concentration of 14 and 15a 50 ppm) was 46.7%. It also gave a mortality at 50 ppm [1, 13] of 50%, a mortality at 50 ppm [1, 14] of 40% and a mortality at 50 ppm [1, 15] of 50%. For the same compound, the mortality at 50 ppm ([1]; 96 h, read-out: Larvicidal Activity (%) at Time (h) 96 h, third instar larvae of S. litura, 96 h, concentration of 14 and 15a 50 ppm) was 53.3%, the mortality at 50 ppm [1, 16] was 50% and the mortality at 50 ppm [1, 17] was 50%. The mortality at 50 ppm [1, 18] was 60%, the “Eating Area (%) 96 h” value [1, 19] was 5–10% and the logP [2] was 3.74. The Permeability [3] was “- 4.5 ± 0.059” and the solubility ([4]; pH 7.4, aqueous buffer) was 397 µM and 241 µg/mL.
With `CNC(=O)c1cc(C#N)cc(C)c1NC(=O)c1cc(Br)nn1-c1ncccc1Cl` [Cyantraniliprole, cyantraniliprole, reference compound] the logP [2] was 3.5, the Permeability [3] was “- 4.4 ± 0.077” and the solubility ([4]; pH 7.4, aqueous buffer) was 378 µM and 179 µg/mL.
For `CNC(=O)c1cc(S(C)(=O)=O)cc(C)c1NC(=O)c1cc(Br)nn1-c1ncccc1Cl` [Compound 16b, 3-Bromo-1-(3-chloropyridin-2-yl)-N-(2-methyl-6-(methylcarbamoyl)-4-(methylsulfonyl)phenyl)-1H-pyrazole-5-carboxamide], the mortality [1, 20] was 0%, the mortality [1, 21] was 0% and the “Eating Area (%) 96 h” value [1, 19] was over 30%. For the same compound, the logP [2] was 3.04, the Permeability [3] was “- 4.5 ± 0.030” and the solubility ([4]; pH 7.4, aqueous buffer) was 124 µM and 65.6 µg/mL.
In the case of `CNC(=O)c1cc([S+](C)[O-])cc(C)c1NC(=O)c1cc(Br)nn1-c1ncccc1Cl` (stereo not drawn) [Compound 15b, 3-bromo-1-(3-chloropyridin-2-yl)-N-(2-methyl-6-(methylcarbamoyl)-4-(methylsulfinyl)phenyl)-1H-pyrazole-5-carboxamide], the mortality [1, 20] is reported as 0%, the mortality [1, 21] is reported as 0% and the “Eating Area (%) 96 h” value [1, 19] is reported as over 30%. For the same compound, the logP [2] was 2.59, the Permeability [3] was “- 4.8 ± 0.037” and the solubility ([4]; pH 7.4, aqueous buffer) was 486 µM and 248 µg/mL.
For `CNC(=O)c1cc(S(C)(=O)=NC(=O)C(F)(F)F)cc(C)c1NC(=O)c1cc(Br)nn1-c1ncccc1Cl` (stereo not drawn) [Compound 16a, 3-Bromo-1-(3-chloropyridin-2-yl)-N-(2-methyl-4-(S-methyl-N-(2,2,2-trifluoroacetyl)sulfonimidoyl)-6-(methylcarbamoyl)phenyl)-1H-pyrazole-5-carboxamide], the mortality [1, 20] was 0%, the mortality [1, 21] was 0% and the “Eating Area (%) 96 h” value [1, 19] was over 30%. The logP [2] was 4.95, the Permeability [3] was “- 4.7 ± 0.075” and the solubility ([4]; pH 7.4, aqueous buffer) was 397 µM and 247 µg/mL.
With `CNC(=O)c1cc(Cl)cc(C)c1NC(=O)c1cc(Br)nn1-c1ncccc1Cl` [Chlorantraniliprole, chlorantraniliprole, reference compound] the “Eating area (%)” value ([1]; 25 ppm) was 0–5%, the mortality at 25 ppm ([1]; 24 h, read-out: Larvicidal activity (%) at 24 h, replicate 2, 24 h, 25 ppm) was 30% and the mortality at 25 ppm ([1]; 48 h, read-out: Larvicidal activity (%) at 48 h, Average, 48 h, 25 ppm, average of three replicates) was 86.7%. It also gave a mortality at 25 ppm ([1]; 48 h, read-out: Larvicidal activity (%) at 48 h, replicate 1, 48 h, 25 ppm) of 90%, a mortality at 25 ppm ([1]; 48 h, read-out: Larvicidal activity (%) at 48 h, replicate 2, 48 h, 25 ppm) of 80% and a mortality at 25 ppm ([1]; 48 h, read-out: Larvicidal activity (%) at 48 h, replicate 3, 48 h, 25 ppm) of 90%. It also gave a mortality at 25 ppm ([1]; 72 h, read-out: Larvicidal activity (%) at 72 h, Average, 72 h, 25 ppm, average of three replicates) of 100%, a mortality at 25 ppm ([1]; 72 h, read-out: Larvicidal activity (%) at 72 h, replicate 1, 72 h, 25 ppm) of 100% and a mortality at 25 ppm ([1]; 72 h, read-out: Larvicidal activity (%) at 72 h, replicate 2, 72 h, 25 ppm) of 100%. The mortality at 25 ppm ([1]; 72 h, read-out: Larvicidal activity (%) at 72 h, replicate 3, 72 h, 25 ppm) was 100%, the mortality at 25 ppm ([1]; 96 h, read-out: Larvicidal activity (%) at 96 h, Average, 96 h, 25 ppm, average of three replicates) was 100% and the mortality at 25 ppm ([1]; 96 h, read-out: Larvicidal activity (%) at 96 h, replicate 1, 96 h, 25 ppm) was 100%. The mortality at 25 ppm ([1]; 96 h, read-out: Larvicidal activity (%) at 96 h, replicate 2, 96 h, 25 ppm) was 100%, the mortality at 25 ppm ([1]; 96 h, read-out: Larvicidal activity (%) at 96 h, replicate 3, 96 h, 25 ppm) was 100% and the mortality ([1]; read-out: Larvicidal activity (%) at 24 h, replicate 2, 24 h, 25 ppm, listed as Ref.) was 20%. For the same compound, the mortality ([1]; read-out: Larvicidal activity (%) at 48 h, Average, 48 h, 25 ppm, average of three replicates, listed as Ref.) was 66.7%, the mortality ([1]; read-out: Larvicidal activity (%) at 48 h, replicate 2, 48 h, 25 ppm, listed as Ref.) was 70% and the mortality ([1]; read-out: Larvicidal activity (%) at 72 h, Average, 72 h, 25 ppm, average of three replicates) was 100%. It also gave a mortality ([1]; read-out: Larvicidal activity (%) at 72 h, replicate 1, 72 h, 25 ppm) of 100%, a mortality ([1]; read-out: Larvicidal activity (%) at 72 h, replicate 2, 72 h, 25 ppm) of 100% and a mortality ([1]; read-out: Larvicidal activity (%) at 72 h, replicate 3, 72 h, 25 ppm) of 100%. The mortality ([1]; read-out: Larvicidal activity (%) at 96 h, Average, 96 h, 25 ppm, average of three replicates) was 100%, the mortality ([1]; read-out: Larvicidal activity (%) at 96 h, replicate 1, 96 h, 25 ppm) was 100% and the mortality ([1]; read-out: Larvicidal activity (%) at 96 h, replicate 2, 96 h, 25 ppm) was 100%. The mortality ([1]; read-out: Larvicidal activity (%) at 96 h, replicate 3, 96 h, 25 ppm) was 100%, the logP ([2]; ACD/Labs T3 method (pH-metric), read-out: Log P) was 5.25 and the Permeability [3] was “- 4.3 ± 0.046”. The solubility ([4]; aqueous buffer, μSOL, at 25 ℃ and pH 7.4, read-out: Solubility (Equilibrium)) was 21.5 ± 1.59 µM and the solubility ([4]; pH 7.4, aqueous buffer) was 0.0104 ± 0.000771 mg/mL.
For `CNC(=O)c1cc(SC)cc(C)c1NC(=O)c1cc(Br)nn1-c1ncccc1Cl` [Compound 14, 3-Bromo-1-(3-chloropyridin-2-yl)-N-(2-methyl-6-(methylcarbamoyl)-4-(methylthio)phenyl)-1H-pyrazole-5-carboxamide], the mortality at 50 ppm [1, 5] was 0%, the mortality at 50 ppm [1, 6] was 0% and the mortality at 50 ppm [1, 7] was 0%. For the same compound, the mortality at 50 ppm [1, 8] was 0%, the mortality at 50 ppm [1, 9] was 13.3% and the mortality at 50 ppm [1, 10] was 20%. The mortality at 50 ppm [1, 11] was 0%, the mortality at 50 ppm [1, 12] was 20% and the mortality at 50 ppm [1, 13] was 70%. The mortality at 50 ppm [1, 14] was 30%, the mortality at 50 ppm [1, 15] was 40% and the mortality at 50 ppm [1, 16] was 80%. It also gave a mortality at 50 ppm [1, 17] of 70%, a mortality at 50 ppm [1, 18] of 70% and a mortality [1, 20] of 46.7%. The mortality [1, 21] was 73.3%, the “Eating Area (%) 96 h” value [1, 19] was 5–10% and the logP [2] was 3.45. The Permeability [3] was “- 4.3 ± 0.047” and the solubility ([4]; pH 7.4, aqueous buffer) was 5.4 µM and 2.67 µg/mL.

— PMC6804157, “Synthesis, Physicochemical Properties, and Biological Activities of 4-(S-Methyl-N-(2,2,2-Trifluoroacetyl)Sulfilimidoyl) Anthranilic Diamide” (Molecules, 2019)
